Test results as given in patent publication US20140330022A1, “COLLATERAL BLOOD CIRCULATION DEVELOPMENT PROMOTER” (KOWA COMPANY, LTD., priority 2012, published 2014).
Each block holds one compound with its values, some of them ahead of it.

Tests used:
[1] = test system: human aortic endothelial cells (HAEC); assay: Proliferative activity of HAEC (WST-8 assay); format: cell-based; details: 1 μM and 3 μM, 48 hours incubation, vs solvent control, n=3 (FIG. 1)
Protocol: (§1) The Compound 1 was produced according to the method described in WO97/012869 and dissolved in dimethyl sulfoxide (solvent). As for cells used in the experiment, human aortic endothelial cells (HAEC (Lonza Group Ltd.)) and normal human umbilical vein endothelial cells (HUVEC; American Type Culture Collection) were used.
HAEC were cultured using an endothelial cell growth medium (EGM-2 bullet kit; Lonza) containing 10% fetal bovine serum (FBS). The proliferative activity of HAEC was assessed by a WST-8 assay using a Cell Counting Kit (Dojindo Laboratories). In a 96-well plate, HAEC were seeded at a concentration of 5000 cells per well, and incubated for 24 hours. Subsequently, the medium in each well was exchanged to 100 μL of fresh culture medium containing various concentrations of the Compound 1 or solvent alone. After the 48 hours of subsequent incubation, 10 μL of WST-8 reagent was added to each well. The plate was incubated another 4 hours, and then the absorbance at 450 nm was measured with an absorbance plate reader.

[2] = test system: rat femoral artery occlusion model; assay: Hindlimb muscle blood flow in rat hindlimb ischemia model by ligation of femoral artery (colored microspheres); format: in vivo; details: 30 mg/kg oral twice daily for 27 days
Protocol: (§2) The Compound 1 was produced according to the method described in WO97/012869 and was used by dissolving in dimethyl sulfoxide or suspending in 1% (W/W) of hydroxypropyl methyl cellulose aqueous solution. As for animals, 7 to 9 week-old Sprague-Dawley (Slc:SD) male rats were used. As for anesthesia for operation, pentobarbital.sodium was intraperitoneally administered at a dose of 50 mg/kg.
(§3) Bilateral femoral arteries were exposed and the arteries were ligated using a suture under anesthesia. For histological analysis, the Compound 1 or base alone was orally administered twice daily for 27 days starting on the day of operation. On Day 28, the left gastrocnemius muscle was extirpated and frozen in a Tissue-Tek O.C.T. compound (Sakura Finetech Japan Co., Ltd.). Tissue sections at a thickness of 10 μm were prepared by slicing the frozen tissue sample with a freezing microtome, and dried in an air and fixed with acetone. […] The positive staining with α-SMA was identified by an examination using a light microscope, and the luminal area of intramuscular artery was quantified by image analysis (Win ROOF; Mitani Co., Ltd.). The blood flow volume on Day 28 in the hindlimb muscle in this model was determined by measuring at two points, in other words before and after exercise, using Dye-Trak VII+ microspheres (Triton Technology, Inc.).
In particular detail, initially a pentobarbital.sodium solution was intraperitoneally administered to the rat at a dose of 50 mg/kg to anesthetize. […] Wave profile of blood pressure that is characteristic to the left ventricular was detected to confirm whether the catheter has reached to the left ventricular. The temporal pulse pressure and average blood pressure were measured with a sphygmomanometer via the blood pressure transducer. […]

[3] = test system: rat femoral artery occlusion model; assay: Luminal area of intramuscular artery in gastrocnemius muscle, rat femoral artery ligation model (α-SMA staining); format: in vivo; details: 30 mg/kg oral twice daily for 27 days, mean±standard error, n=16, ligated control 3315±416, sham 14642±1062, P<0.05
Protocol: as §2, §3

[4] = test system: normal human umbilical vein endothelial cells (HUVEC); assay: HUVEC tube formation on Matrigel matrix; format: cell-based
Protocol: as §1
HUVEC were cultured using an endothelial cell growth medium (Endothelial Cell Growth Medium: Cell Applications) containing 10% FBS. In a 96-well plate coated with Matrigel matrix, HUVEC were seeded at a concentration of 1.5×10^4 cells per well, and incubated in a 200 μL of culture medium containing various concentrations of the […] or solvent alone for 18 hours. After that, total tube length in a field (Total tube length) was calculated by image analysis using a light microscope (E-400; Nikon Corp.).

[5] = Pharmacokinetics study in the rat, single oral dose; format: in vivo; details: non-fasting, serum, n=3
Protocol: The concentration of the Compound 1 in the serum was detected with a high-performance liquid chromatography system attached with a fluorescence detector. The maximum plasma concentration (Cmax) and time to the maximum plasma concentration (Tmax) were determined from the measurement of the drug concentration in the serum, half-life (T1/2), and AUC. The time curve was computed by a least squares method and a trapezoidal method, respectively.

[6] = test system: excised rat femoral artery contracted with KCl; assay: Vasodilation of excised rat femoral artery in Magnus tube; details: 0.1 μmol/L to 30 μmol/L, in vitro, n=3 (FIG. 9)
Protocol: The femoral artery vessel (3 mm in width) excised from the rat was placed to a Magnus tube filled with a Krebs-Henseleit solution maintained at 37° C., to which a mixed gas of 95% O2 and 5% CO2 was continuously injected by reference to the method by Abiru et al. (Abiru T, et al., Eur J. Pharmacol. 1995; 281:9-15.). The isometric tension of the vessel was measured with a tension transducer, and the result was recorded with a thermal printer. The vessel was adjusted to a resting tension of 0.75 g. The vessel was contracted by 60 mmol/L (rats) of potassium chloride, and then the Compound 1 or a base was continuously injected to the Magnus tube. At the end of each experiment, […] of papaverine was added in order to determine the maximum relaxation.

[7] = test system: lower-extremity ischemic mouse; details: long-term administration (Non-Patent Document 7); cited from earlier work
[8] = test system: human aortic endothelial cells (HAEC); details: HAEC in vitro; eNOS phosphorylation via cAMP/PKA and PI3K/Akt, increased NO production (Non-Patent Document 6); cited from earlier work
[9] = Sprague-Dawley (Slc:SD), single oral 3 mg/kg
[10] = Sprague-Dawley (Slc:SD), single oral 10 mg/kg
[11] = Sprague-Dawley (Slc:SD), single oral 100 mg/kg
[12] = Sprague-Dawley, single oral 10 mg/kg
[13] = Sprague-Dawley, single oral 30 mg/kg

AUC(0-inf) [5, 9]: 1.33 µM·h
AUC(0-t) [5, 9]: 0.83 µM·h
Cmax [5, 9]: 300 ± 60 nM
Tmax [5, 9]: 1 h
half-life [5, 9]: 2.64 h
AUC(0-t) [5, 10]: 2.38 µM·h
Cmax [5, 10]: 830 ± 140 nM
Cmax ([5]; Sprague-Dawley (Slc:SD), single oral 30 mg/kg): 4730 ± 280 nM
AUC(0-inf) [5, 11]: 48.2 µM·h
AUC(0-t) [5, 11]: 47.1 µM·h
Tmax [5, 11]: 1 h
half-life [5, 11]: 2.19 h
AUC(0-inf) [5, 12]: 2.55 µM·h
Tmax [5, 12]: 1 h
half-life [5, 12]: 2 h
AUC(0-inf) [5, 13]: 14.8 µM·h
AUC(0-t) [5, 13]: 14.1 µM·h
Tmax [5, 13]: 2 h
half-life [5, 13]: 1.61 h
Cmax ([5]; Sprague-Dawley, single oral 100 mg/kg): 9760 ± 1440 nM
Structure (SMILES): O=C(NCCCOc1ccc2[nH]c(=O)ccc2c1)N(C1CC1)[C@@H]1CCCC[C@H]1O [Compound 1, (−)-6-[3-[3-cyclopropyl-3-[(1R,2R)-2-hydroxycyclohexyl]ureido]propoxy]-2(1H)-quinolinone]
effect on the proliferative activity of HAEC [1]: no effect
blood flow in the gastrocnemius muscle after exercise ([2]; Day 28, after exercise, mean±standard error, n=20, control 0.561±0.034, P<0.001): 0.818 ± 0.058 mL/min/g
blood flow in anterior tibialis muscle after exercise ([2]; Day 28, after exercise, mean±standard error, n=20, control 0.697±0.039, P<0.001): 0.992 ± 0.060 mL/min/g
hindlimb muscle blood flow before exercise ([2]; Day 28, before exercise (at rest), gastrocnemius and anterior tibialis): no change
luminal area of the main artery in the gastrocnemius muscle [3]: 7100±824 μm^2
angiogenesis in photographs of HUVEC tube formation ([4]; 0.01, 0.1, 1, 10, 100 μM (FIG. 2)): no angiogenesis could be confirmed
HUVEC tube formation, ratio of Total tube length with respect to the control ([4]; 0.01 to 100 μM, 18 hours, n=2 (FIG. 3)): no significant difference with respect to the control
angiogenic activity via direct action to endothelial cells ([4]; conclusion from HAEC proliferation and HUVEC tube formation): does not have an angiogenic activity
vasodilating effect on ring specimen of excised rat femoral artery [6]: dose-dependent vasodilating effect

Structure (SMILES): O=C1CCc2cc(OCCCCc3nnnn3C3CCCCC3)ccc2N1 [cilostazol]
vascular density in lower-extremity muscles [7]: elevates
tubulogenesis of endothelial cells [8]: promotes tubulogenesis of endothelial cells
